Data as given in PMC7851014 (Investigational New Drugs, 2020).
One block for each compound: values may come before it.

What was measured:
BCRP = test system: BCRP; design: method as in PMID 27001813; conditions: cited from earlier work
ɣ-GT [1] = test system: ɣ-GT; design: method as in PMID 9178957; conditions: cited from earlier work
ɣ-GT [2] = target: T1, ɣ-GT (Homo sapiens, UniProt P19440); experiment: ɣ-GT inhibition in ciPTEC; assay type: cell-based; conditions: 100 μM acivicin pre-incubation 2.5 h, 2 μM ibrutinib, 4 h, intra- and extracellularly
T1 construct: host or cells: ciPTEC (human conditionally immortalized proximal tubule epithelial cells)
Experimental: The formation of metabolites in medium and cells was monitored after 4 h. Ɣ-GT activity in human plasma and calf serum was measured on a Beckmann Coulter AU5800 (Fullerton, CA, USA) clinical chemistry analyzer, with a limit of quantitation of 1 U/L.

dehydropeptidase I = conditions: cited from earlier work
GST [3] = experiment: GST activity in ciPTEC lysate; conditions: 100 μM, pre-incubating lysate for 2.5 h
GST [4] = test system: GST; design: method as in PMID 8706007; conditions: cited from earlier work
ciPTEC = conditions: ciPTEC, 4 h incubation with ibrutinib
Experimental: Medium and cell lysate samples were taken at 1, 2, 3 and 4 h. Each time point was measured in duplicate. Preincubation (t0) analyte concentrations in medium were also analyzed.

T1 sequence (P19440 whole entry): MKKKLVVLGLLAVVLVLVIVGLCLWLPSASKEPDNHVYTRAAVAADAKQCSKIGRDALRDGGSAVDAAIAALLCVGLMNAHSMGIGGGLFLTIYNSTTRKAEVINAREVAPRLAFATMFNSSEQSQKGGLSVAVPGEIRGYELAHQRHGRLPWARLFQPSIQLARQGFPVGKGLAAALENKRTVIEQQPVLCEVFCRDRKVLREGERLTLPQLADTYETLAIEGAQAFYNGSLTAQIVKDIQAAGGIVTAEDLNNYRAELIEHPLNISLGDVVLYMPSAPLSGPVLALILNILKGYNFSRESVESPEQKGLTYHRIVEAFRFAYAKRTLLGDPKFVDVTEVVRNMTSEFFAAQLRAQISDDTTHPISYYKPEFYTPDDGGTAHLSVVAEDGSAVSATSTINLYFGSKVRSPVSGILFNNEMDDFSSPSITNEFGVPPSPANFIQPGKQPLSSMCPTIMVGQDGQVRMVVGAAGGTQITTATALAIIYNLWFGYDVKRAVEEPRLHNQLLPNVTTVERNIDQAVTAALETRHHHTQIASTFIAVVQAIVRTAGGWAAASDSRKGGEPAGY

Compound: C[C@@H](c1ncncc1F)[C@](O)(Cn1cncn1)c1ccc(F)cc1F [Voriconazole]
inhibition of BCRP (BCRP): some inhibition

effect on metabolism of IGSH in ciPTEC (ɣ-GT [2]): blocked
Compound: N[C@H](C(=O)O)[C@@H]1CC(Cl)=NO1 [acivicin]
IC99 (ɣ-GT [1]): 50 µM

Compound: CC1(C)C[C@@H]1C(=O)N/C(=C\CCCCSC[C@H](N)C(=O)O)C(=O)O [cilastatin]
IC50 (dehydropeptidase I): 100 µM

Compound: C=C(CC)C(=O)c1ccc(OCC(=O)O)c(Cl)c1Cl [ethacrynic acid]
effect on formation of IGSH in ciPTEC lysate (GST [3]): inhibited
IC97 (GST [4]): 15 µM

detection as secondary bioactivation-metabolite of ICYS (ciPTEC): clearly found
Compound: Nc1ncnc2c1c(-c1ccc(Oc3ccccc3)cc1)nn2C1CCCN(C(=O)CCSC2OC(C(=O)O)C(O)C(O)C2O)C1 (stereo not shown) [ibrutinib-S-glucuronide]
